PMC4104029, “Mechanism of Action of Compound-13: An α1-Selective Small Molecule Activator of AMPK” (Chemistry & Biology, 2014)

Test system: isolated, full-length AMPKα1 and α2 subunits
Experiment: Isolated AMPKα subunit activity assay
Format: biochemical, human
Conditions: C2 0–1000 nM, conditions as Figure 1B
Description: Supplemental Figure Legends:
Figure S1, related to Figures 1-3. Subunit composition of AMPK preparations used in this study. (A) Heterotrimeric AMPK complexes (10 ng) produced in both Sf9 (Sigma and Signalchem) and E.coli (in our laboratory) were analysed by Western blotting using isoform specific antibodies. Note that both the α2/α1-HOOK and α2/α1-LOOP chimeras are no longer recognised by the anti-α2 antibody as the epitope has been replaced (see Fig S4). (B) Heterotrimeric AMPK α2/α1 chimeric complexes expressed in E.coli (2 μg) were separated by SDS-PAGE and stained with Coomassie G-250. Arrows indicate the position of the […]
Figure S2, related to Figure 1. C2 has negligible effects on a panel of 138 protein kinases.
Kinase inhibition screen was performed by the International Centre for Kinase profiling (Dundee). Assays were performed in duplicate using 10 µM C2 and are representative of two independent screens. Results are shown in rank order as mean % activity compared with controls in the absence of compound ± SD. […]
Figure S3, related to Figure 2. […] Results are expressed as mean Pi incorporated in nmol.min-1.mg-1 ± SD. […] Results are expressed as fold increase in activity relative to controls in the absence of compound ± SD.
(E) C2 and AMP displace a GST-AMPKγ2 subunit fusion from ATP-γ-Sepharose. […] The presence of eluted AMPKγ2 was analysed by SDS-PAGE and staining with colloidal Coomassie. […]

With `O=P(O)(O)c1ccc(-c2cc(O)on2)o1` [Compound C2, 5-(5-hydroxyl-isoxazol-3-yl)-furan-2-phosphonic acid] as the molecule, how does the effect on activity read?
The effect on activity was “no effect”.
